1 compound from ChEMBL document CHEMBL5661979, “Pharmacological inhibition of BMK1 suppresses tumor growth through promyelocytic leukemia protein” (Cancer Cell, 2010) can be followed below.

Data set [1] deals with Serine/threonine-protein kinase tousled-like 1 (Homo sapiens, UniProt Q9UKI8). The data set can be described thus: Inhibition of TLK1 in human HeLa cells lysate pre incubated for 15 mins followed by ADP acyl phosphate probe addition and measured after 10 mins by LC-MS/MS analysis. The format is subcellular.
Data set [2] addresses Dual specificity mitogen-activated protein kinase kinase; MEK1/2 (Homo sapiens, UniProt P36507+Q02750). The data set can be described thus: Inhibition of MAP2K1/MAP2K2in human HeLa cells lysate at 10 uM pre incubated for 15 mins followed by ADP acyl phosphate probe addition and measured after 10 mins by LC-MS/MS analysis relative to control. The format is subcellular. Conditions: time 25.0 min.

Data set [3] in a line: Inhibition of MAP3K5/MAP3K6/MAP3K15 in human HeLa cells lysate at 10 uM pre incubated for 15 mins followed by ATP acyl phosphate probe addition and measured after 10 mins by LC-MS/MS analysis relative to control. The note with it: 25 min, condition cancer.
Data set [4] addresses Serine/threonine-protein kinase ULK2 (Homo sapiens) (UniProt Q8IYT8). The data set can be described thus: Inhibition of ULK2 in human HeLa cells lysate at 2 uM pre incubated for 15 mins followed by ADP acyl phosphate probe addition and measured after 10 mins by LC-MS/MS analysis relative to control. In kind it is subcellular. Conditions: time 25.0 min.
In a further data set the target is eIF-2-alpha kinase GCN2 (Homo sapiens, UniProt Q9P2K8). In words: Inhibition of GCN2 in human HeLa cells lysate at 10 uM pre incubated for 15 mins followed by ATP acyl phosphate probe addition and measured after 10 mins by LC-MS/MS analysis relative to control. The format is subcellular. Conditions: time 25.0 min.
For data set [5], the target named is T1, Serine/threonine-protein kinase Chk1 (Homo sapiens) (UniProt O14757).
T1 sequence (whole entry): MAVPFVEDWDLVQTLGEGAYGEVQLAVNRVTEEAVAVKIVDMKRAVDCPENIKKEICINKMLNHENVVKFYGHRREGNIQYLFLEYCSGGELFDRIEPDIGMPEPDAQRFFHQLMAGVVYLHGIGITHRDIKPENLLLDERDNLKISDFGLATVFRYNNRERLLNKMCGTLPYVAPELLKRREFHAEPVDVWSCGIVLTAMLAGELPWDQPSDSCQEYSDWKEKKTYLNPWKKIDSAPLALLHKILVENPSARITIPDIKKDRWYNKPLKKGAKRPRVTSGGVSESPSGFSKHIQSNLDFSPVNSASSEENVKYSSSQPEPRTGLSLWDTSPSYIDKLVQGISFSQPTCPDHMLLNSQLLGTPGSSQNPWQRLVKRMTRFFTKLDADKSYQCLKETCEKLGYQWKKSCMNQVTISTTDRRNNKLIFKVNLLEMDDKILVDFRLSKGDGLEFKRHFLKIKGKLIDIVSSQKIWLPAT
The data set can be described thus: Inhibition of CHK1 in human HeLa cells lysate at 50 uM pre incubated for 15 mins followed by ATP acyl phosphate probe addition and measured after 10 mins by LC-MS/MS analysis relative to control. The note with it: time 25.0 min. In kind it is subcellular.

Data set [6] addresses T2, Non-receptor tyrosine-protein kinase TNK1 (Homo sapiens) (UniProt Q13470).
T2 sequence (whole entry): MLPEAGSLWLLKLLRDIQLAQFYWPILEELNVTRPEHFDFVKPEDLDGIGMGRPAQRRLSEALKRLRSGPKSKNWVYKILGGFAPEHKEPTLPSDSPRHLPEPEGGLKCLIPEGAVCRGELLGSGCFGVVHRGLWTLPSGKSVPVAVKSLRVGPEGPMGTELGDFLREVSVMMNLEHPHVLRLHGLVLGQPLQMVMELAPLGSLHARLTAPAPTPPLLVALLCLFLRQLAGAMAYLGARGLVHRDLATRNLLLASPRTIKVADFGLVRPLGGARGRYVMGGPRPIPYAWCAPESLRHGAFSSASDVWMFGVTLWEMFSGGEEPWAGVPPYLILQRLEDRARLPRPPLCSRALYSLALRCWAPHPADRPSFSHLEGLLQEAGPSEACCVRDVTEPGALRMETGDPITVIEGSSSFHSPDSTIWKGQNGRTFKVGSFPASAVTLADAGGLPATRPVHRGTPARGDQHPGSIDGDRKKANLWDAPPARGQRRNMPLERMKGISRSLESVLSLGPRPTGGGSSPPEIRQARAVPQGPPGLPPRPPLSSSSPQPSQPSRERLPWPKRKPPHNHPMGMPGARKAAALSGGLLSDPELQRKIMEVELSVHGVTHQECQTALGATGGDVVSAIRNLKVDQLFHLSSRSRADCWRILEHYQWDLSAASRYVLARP
In words: Inhibition of TNK1 in human HeLa cells lysate at 2 uM pre incubated for 15 mins followed by ADP acyl phosphate probe addition and measured after 10 mins by LC-MS/MS analysis relative to control. The format is subcellular. Conditions: time 25.0 min.

Data set [7] is described as follows: Plasma concentration in C57Bl/6 mouse at 50 mg/kg, ip administered for 1 day and measured 8 hr post last dose by LC-MS/MS analysis. The format is ADME, organism-based.
The target in data set [8] is Dual specificity mitogen-activated protein kinase kinase 3 (Homo sapiens, UniProt P46734). In words: Inhibition of MAP2K3 in human HeLa cells lysate pre incubated for 15 mins followed by ADP acyl phosphate probe addition and measured after 10 mins by LC-MS/MS analysis. The format is subcellular.
Data set [9] in a line: Inhibition of PKD1/2 in human HeLa cells lysate at 10 uM pre incubated for 15 mins followed by ATP acyl phosphate probe addition and measured after 10 mins by LC-MS/MS analysis relative to control. The note with it: 25 min, condition cancer.
The target of data set [10] is Ribosomal protein S6 kinase alpha-5 (Homo sapiens, UniProt O75582). In words: Inhibition of MSK1 in human HeLa cells lysate pre incubated for 15 mins followed by ATP acyl phosphate probe addition and measured after 10 mins by LC-MS/MS analysis. The format is subcellular.
Data set [11] has as its target Protein kinase C iota type (Homo sapiens, UniProt P41743). The data set can be described thus: Inhibition of PKCiota in human HeLa cells lysate pre incubated for 15 mins followed by ADP acyl phosphate probe addition and measured after 10 mins by LC-MS/MS analysis. In kind it is subcellular.
Data set [12] has as its target Ribosomal protein S6 kinase beta-1 (Homo sapiens, UniProt P23443). The data set can be described thus: Inhibition of P70S6K in human HeLa cells lysate at 50 uM pre incubated for 15 mins followed by ATP acyl phosphate probe addition and measured after 10 mins by LC-MS/MS analysis relative to control. In kind it is subcellular. The note with it: time 25.0 min.
For data set [13], the target named is Ribosomal protein S6 kinase alpha-1 (Homo sapiens, UniProt Q15418). In words: Inhibition of RSK1 domain 1 in human HeLa cells lysate pre incubated for 15 mins followed by ADP acyl phosphate probe addition and measured after 10 mins by LC-MS/MS analysis. The format is subcellular.
The target in data set [14] is T1, Serine/threonine-protein kinase Chk1 (Homo sapiens). In words: Inhibition of CHK1 in human HeLa cells lysate at 2 uM pre incubated for 15 mins followed by ATP acyl phosphate probe addition and measured after 10 mins by LC-MS/MS analysis relative to control. In kind it is subcellular. Conditions: time 25.0 min.
Data set [15] has as its target STE20-like serine/threonine-protein kinase (Homo sapiens, UniProt Q9H2G2). In words: Inhibition of SLK in human HeLa cells lysate at 50 uM pre incubated for 15 mins followed by ADP acyl phosphate probe addition and measured after 10 mins by LC-MS/MS analysis relative to control. Conditions: time 25.0 min. In kind it is subcellular.
Data set [16] can be described thus: Inhibition of PRKX/PRKY in human HeLa cells lysate at 2 uM pre incubated for 15 mins followed by ADP acyl phosphate probe addition and measured after 10 mins by LC-MS/MS analysis relative to control. Conditions: 25 min, condition cancer.

Dual specificity mitogen-activated protein kinase kinase 3, sequence (P46734 whole entry): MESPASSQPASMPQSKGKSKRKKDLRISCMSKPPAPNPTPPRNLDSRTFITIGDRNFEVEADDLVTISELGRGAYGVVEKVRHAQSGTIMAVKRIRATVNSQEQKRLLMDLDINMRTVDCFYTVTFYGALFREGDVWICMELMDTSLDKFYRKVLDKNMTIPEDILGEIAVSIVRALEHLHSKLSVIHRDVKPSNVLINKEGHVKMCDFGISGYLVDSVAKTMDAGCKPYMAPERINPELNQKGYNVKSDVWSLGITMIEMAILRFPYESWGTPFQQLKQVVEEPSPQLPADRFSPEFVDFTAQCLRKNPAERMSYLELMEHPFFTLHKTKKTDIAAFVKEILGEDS
Protein kinase C iota type, sequence (P41743 whole entry): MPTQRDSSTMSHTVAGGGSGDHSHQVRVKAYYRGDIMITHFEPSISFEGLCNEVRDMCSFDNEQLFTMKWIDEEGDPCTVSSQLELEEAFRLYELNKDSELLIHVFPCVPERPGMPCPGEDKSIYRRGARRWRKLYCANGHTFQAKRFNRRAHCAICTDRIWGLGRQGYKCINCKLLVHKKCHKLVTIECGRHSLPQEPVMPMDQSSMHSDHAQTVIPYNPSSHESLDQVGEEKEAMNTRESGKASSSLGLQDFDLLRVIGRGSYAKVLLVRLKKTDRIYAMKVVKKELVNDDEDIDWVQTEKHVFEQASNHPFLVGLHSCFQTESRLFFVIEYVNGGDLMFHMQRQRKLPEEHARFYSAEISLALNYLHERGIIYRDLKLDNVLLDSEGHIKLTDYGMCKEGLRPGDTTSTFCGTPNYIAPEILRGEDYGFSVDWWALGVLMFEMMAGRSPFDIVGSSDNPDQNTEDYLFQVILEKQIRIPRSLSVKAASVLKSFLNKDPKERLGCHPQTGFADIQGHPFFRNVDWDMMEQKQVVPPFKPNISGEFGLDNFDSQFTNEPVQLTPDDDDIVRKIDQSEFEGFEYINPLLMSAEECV
STE20-like serine/threonine-protein kinase, sequence (Q9H2G2 whole entry, looked up): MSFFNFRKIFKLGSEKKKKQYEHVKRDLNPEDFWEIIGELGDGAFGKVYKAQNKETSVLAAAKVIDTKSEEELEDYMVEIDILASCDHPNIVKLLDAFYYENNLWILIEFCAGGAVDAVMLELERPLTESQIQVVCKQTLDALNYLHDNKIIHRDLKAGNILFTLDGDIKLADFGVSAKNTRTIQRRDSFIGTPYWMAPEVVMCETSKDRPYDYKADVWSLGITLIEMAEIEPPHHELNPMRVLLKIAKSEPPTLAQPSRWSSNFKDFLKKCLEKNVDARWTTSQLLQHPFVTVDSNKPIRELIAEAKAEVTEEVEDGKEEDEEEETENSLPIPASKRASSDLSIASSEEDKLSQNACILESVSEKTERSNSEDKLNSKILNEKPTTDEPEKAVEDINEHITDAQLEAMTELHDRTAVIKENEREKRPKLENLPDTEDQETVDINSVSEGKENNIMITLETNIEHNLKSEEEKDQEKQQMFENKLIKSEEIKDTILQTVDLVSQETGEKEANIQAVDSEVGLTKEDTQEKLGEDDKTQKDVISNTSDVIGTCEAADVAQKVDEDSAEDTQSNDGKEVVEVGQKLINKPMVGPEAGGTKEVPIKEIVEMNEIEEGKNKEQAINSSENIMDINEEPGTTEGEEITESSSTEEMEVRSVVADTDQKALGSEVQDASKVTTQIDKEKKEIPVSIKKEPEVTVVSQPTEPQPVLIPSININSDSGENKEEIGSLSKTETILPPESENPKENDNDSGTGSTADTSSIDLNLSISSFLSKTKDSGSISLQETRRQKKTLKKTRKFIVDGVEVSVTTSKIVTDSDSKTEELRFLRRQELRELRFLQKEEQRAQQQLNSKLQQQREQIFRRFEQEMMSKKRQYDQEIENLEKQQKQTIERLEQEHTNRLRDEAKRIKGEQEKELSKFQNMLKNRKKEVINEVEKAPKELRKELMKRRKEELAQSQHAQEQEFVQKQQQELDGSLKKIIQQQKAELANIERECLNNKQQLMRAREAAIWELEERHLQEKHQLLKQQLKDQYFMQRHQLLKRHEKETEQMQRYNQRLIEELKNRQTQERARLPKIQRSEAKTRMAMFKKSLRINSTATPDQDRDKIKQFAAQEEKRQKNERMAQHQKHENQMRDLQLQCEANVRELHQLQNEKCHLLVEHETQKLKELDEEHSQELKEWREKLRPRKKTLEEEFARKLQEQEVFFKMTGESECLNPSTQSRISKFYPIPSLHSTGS
Ribosomal protein S6 kinase beta-1, sequence (P23443 whole entry, looked up, the tested form may be a part): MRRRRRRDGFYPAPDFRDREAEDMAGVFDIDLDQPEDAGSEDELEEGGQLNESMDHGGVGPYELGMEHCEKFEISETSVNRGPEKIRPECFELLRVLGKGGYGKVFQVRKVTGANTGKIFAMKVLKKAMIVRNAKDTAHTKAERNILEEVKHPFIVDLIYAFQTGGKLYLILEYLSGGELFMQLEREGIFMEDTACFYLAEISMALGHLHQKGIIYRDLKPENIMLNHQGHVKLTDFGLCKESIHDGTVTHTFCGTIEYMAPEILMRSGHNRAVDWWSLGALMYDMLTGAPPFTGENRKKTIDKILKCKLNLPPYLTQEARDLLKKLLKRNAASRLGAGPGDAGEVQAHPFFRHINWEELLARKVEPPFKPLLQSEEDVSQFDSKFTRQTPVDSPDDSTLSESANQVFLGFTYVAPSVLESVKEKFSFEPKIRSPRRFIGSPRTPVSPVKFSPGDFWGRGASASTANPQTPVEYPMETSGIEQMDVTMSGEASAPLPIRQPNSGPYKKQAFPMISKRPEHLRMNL
Serine/threonine-protein kinase ULK2 (Homo sapiens), sequence (Q8IYT8 whole entry): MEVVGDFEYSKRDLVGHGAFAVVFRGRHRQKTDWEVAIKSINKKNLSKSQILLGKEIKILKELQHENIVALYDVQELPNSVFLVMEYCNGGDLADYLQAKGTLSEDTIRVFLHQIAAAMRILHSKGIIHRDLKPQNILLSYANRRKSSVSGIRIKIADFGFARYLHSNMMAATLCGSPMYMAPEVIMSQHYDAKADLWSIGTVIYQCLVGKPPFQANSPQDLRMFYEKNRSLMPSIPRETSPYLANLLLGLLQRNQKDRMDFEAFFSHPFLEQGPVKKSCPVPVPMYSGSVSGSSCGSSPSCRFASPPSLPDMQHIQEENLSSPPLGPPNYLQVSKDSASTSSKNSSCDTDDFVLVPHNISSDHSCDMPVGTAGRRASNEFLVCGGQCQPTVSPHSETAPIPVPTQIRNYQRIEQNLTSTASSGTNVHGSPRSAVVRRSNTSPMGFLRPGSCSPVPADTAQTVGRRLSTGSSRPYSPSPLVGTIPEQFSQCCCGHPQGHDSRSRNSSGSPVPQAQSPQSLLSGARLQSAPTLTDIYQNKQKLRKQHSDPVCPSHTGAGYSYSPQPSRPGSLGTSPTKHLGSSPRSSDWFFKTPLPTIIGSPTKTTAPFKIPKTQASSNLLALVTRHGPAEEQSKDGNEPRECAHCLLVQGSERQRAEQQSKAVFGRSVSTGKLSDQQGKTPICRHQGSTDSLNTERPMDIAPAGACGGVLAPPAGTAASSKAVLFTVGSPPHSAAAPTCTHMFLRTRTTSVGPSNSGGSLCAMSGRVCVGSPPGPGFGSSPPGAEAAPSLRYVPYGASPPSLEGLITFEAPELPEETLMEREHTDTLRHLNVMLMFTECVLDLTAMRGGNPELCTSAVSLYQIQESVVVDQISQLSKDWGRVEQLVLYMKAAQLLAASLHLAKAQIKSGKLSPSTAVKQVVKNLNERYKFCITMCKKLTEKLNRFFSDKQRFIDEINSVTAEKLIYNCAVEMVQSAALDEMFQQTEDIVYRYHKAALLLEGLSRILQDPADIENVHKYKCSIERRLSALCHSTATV
Serine/threonine-protein kinase tousled-like 1, sequence (Q9UKI8 whole entry): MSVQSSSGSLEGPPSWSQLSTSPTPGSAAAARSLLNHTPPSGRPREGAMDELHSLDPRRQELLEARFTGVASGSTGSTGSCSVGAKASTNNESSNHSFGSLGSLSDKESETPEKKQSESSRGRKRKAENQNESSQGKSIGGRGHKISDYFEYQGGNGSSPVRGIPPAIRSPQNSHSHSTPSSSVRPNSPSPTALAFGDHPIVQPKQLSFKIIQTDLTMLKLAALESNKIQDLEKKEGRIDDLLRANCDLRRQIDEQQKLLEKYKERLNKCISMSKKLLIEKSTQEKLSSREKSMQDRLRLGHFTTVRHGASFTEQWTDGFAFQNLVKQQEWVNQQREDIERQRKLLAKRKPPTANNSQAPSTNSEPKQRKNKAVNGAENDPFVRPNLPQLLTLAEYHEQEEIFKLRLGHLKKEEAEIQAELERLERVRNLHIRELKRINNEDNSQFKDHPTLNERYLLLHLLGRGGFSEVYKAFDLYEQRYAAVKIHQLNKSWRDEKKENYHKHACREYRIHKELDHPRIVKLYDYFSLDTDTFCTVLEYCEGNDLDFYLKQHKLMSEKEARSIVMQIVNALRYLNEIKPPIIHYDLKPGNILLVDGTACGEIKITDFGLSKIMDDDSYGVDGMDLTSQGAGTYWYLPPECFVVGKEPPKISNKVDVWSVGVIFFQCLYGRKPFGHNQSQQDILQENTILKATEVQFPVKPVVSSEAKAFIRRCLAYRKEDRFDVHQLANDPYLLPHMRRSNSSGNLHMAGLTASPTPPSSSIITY

Turning to `CCOc1cc(N2CCC(O)CC2)ccc1Nc1ncc2c(n1)N(C)c1ccccc1C(=O)N2C`, the half-inhibitory concentration (IC50) in data set [1], in data set [8], in [10], in data set [11] and in data set [13] was above 50 µM each time. Besides, the inhibition (commonly the change of the read-out against control, counted positive when it falls) was -2.3% in data set [2]; 7.3% in data set [4]; -0.6% on eIF-2-alpha kinase GCN2; -0.4% in data set [5]; 9.2% in data set [6]; -3.8% in data set [12]. Further, the inhibition in [14] came to 5.4%; in [15], 20.9%. Moreover, the inhibition at 10 µM in data set [3] is 1.4%; in [9], -23%. In addition, the concentration at 24 h in data set [7] was 10.2 µM. In [16], the inhibition at 2 µM came out at 25.5%.
